How the values were obtained:
[1] = system: statin-treated patients with established atherosclerosis or diabetes plus risk factor; experiment: Example 2: recurrent and total ischemic events analysis (Andersen-Gill, Wei-Lin-Weissfeld); type: in vivo, human; conditions: for Total key secondary endpoint events: HR vs placebo: without adjustment for stratification differences
Source text: The following study was a multi-center, placebo-controlled clinical trial the details of which are described above in Example 1, the REDUCE-IT design. […] Randomization was stratified by cardiovascular risk cohort (i.e., secondary or primary prevention), use of ezetimibe, and by geographic region.
The primary outcome for the study was total recurrent events consisting of the composite of cardiovascular death, nonfatal myocardial infarction, nonfatal stroke, coronary revascularization, or hospitalization for unstable angina. Recurrent event analyses were also performed for the key secondary endpoint, a composite of cardiovascular death, non-fatal myocardial infarction, or non-fatal stroke. For each of these composite endpoints, the effects of icosapent ethyl in the secondary and primary prevention strata were examined separately.
Demographic and baseline disease characteristics are presented using frequencies and percentages for categorical variables and medians with interquartile ranges for continuous variables. Between treatment group comparisons were derived using the chi-square test for categorical variables and Wilcoxon rank test for continuous variables. All clinical endpoint events used in the efficacy analyses were adjudicated by an independent Clinical Endpoint Committee (CEC) who were blinded to the treatment assignment. Since the primary efficacy endpoint was the time from randomization to the first occurrence of any component of the composite endpoint, and recurrence of such events within each patient is possible, a pre-specified analysis using a Cox proportional-hazard with the counting-process formulation of Andersen and Gill was performed to model the first and all recurrent cardiovascular events. Hazard ratios (HR) and corresponding 95% confidence intervals (CI) are reported from this model. In addition, as a marginal model and an extension of survival models based on the Cox proportional hazard model, the modified Wei-Lin-Weissfeld (WLW) method for analysis of recurrent events in the presence of deaths was carried out as a supportive analysis. In addition, as pre-specified, a recurrent event analysis using the Andersen-Gill and Wei-Lin-Weissfeld methods were carried out for the individual primary event components other than CV death. Though not pre-specified, additional recurrent event analyses were performed for the key secondary endpoint, which is a composite of CV death, non-fatal MI, or non-fatal stroke, and for the primary endpoint and the key secondary endpoint in the primary and secondary prevention strata to explore further the consistency of clinical benefit of icosapent ethyl. In subgroup analyses of the two cardiovascular risk strata (i.e., primary and secondary prevention), site-level discrepancies in cardiovascular risk group assignment occurring at entry and detected during the study (1.8%) were adjusted to conform with documented medical history data prior to randomization. All efficacy analyses were performed according to the intention-to-treat principle. All tests were based on a 2-sided nominal significance level of 5% with no adjustments for multiple comparisons.

[2] = system: statin-treated patients with elevated triglycerides; experiment: Example 3: total (first and subsequent) ischemic events analysis (negative binomial, modified Wei-Lin-Weissfeld, Andersen-Gill, joint frailty); type: in vivo, human; conditions: for Adjusted HR, total events / Unadjusted HR, total events / Adjusted HR, first event / Adjusted HR, second event / Adjusted HR, third event / Unadjusted HR, first event / Unadjusted HR, second event / Unadjusted HR, third event / Adjusted RR, total events / Unadjusted RR, total events / HR, Cardiovascular Death / HR, Non-fatal Cardiovascular Event: vs placebo; for Adjusted HR, first event / Adjusted HR, second event / Adjusted HR, third event / Unadjusted HR, first event / Unadjusted HR, second event / Unadjusted HR, third event: modified WLW; for HR, Cardiovascular Death / HR, Non-fatal Cardiovascular Event: joint frailty model; for Fatal events, %: after reduction
Source text: The following study was a multi-center, placebo-controlled clinical trial the details of which are described above in Example 1, the REDUCE-IT design. […] The main outcomes were total primary composite endpoint events defined as cardiovascular death, nonfatal myocardial infarction, nonfatal stroke, coronary revascularization, or hospitalization for unstable angina and total key secondary composite endpoint events defined as cardiovascular death, nonfatal myocardial infarction, or nonfatal stroke. In the context of this study, total events refer to any first event as well as any subsequent event. Differences in total events were determined using other statistical models, including Andersen-Gill, Wei-Lin-Weissfeld (Li and Lagakos), both pre-specified, and a post hoc and joint-frailty analysis.
For the present prespecified analysis, the primary outcome was the total of first plus subsequent ischemic events consisting of the composite of cardiovascular death, nonfatal myocardial infarction, nonfatal stroke, coronary revascularization, or hospitalization for unstable angina. […] Exploratory analyses of the total of first and subsequent events were also performed for the key secondary composite endpoint.
Baseline characteristics were compared between treatment groups using the chi-squared test for categorical variables and the Wilcoxon rank sum test for continuous variables. There are several methods for analyzing first and subsequent (recurrent) event data. As a pre-specified statistical method, a negative binomial regression was used to calculate rates and rate ratios for total cardiovascular events, which accounts for the variability in each patient's risk of events. As pre-specified supportive analyses, the modified Wei-Lin-Weissfeld method (Li and Lagakos modification) was used to calculate hazard ratios (HRs) for the time to the first event, second event, or third event. An additional pre-specified analysis, the Andersen-Gill model using a Cox proportional-hazard with the counting-process formulation was performed to model the total events. In addition, in order to account for informative censoring due to cardiovascular death, the HR for total non-fatal events was calculated using a joint frailty model (See Rondeau V. Joint frailty models for recurring events and death using maximum penalized likelihood estimation: application on cancer events. Biostatistics. 2007; 8:708-21). The joint frailty model simultaneously estimates hazard functions for non-fatal and fatal CV events and takes into account the fact that patients who are prone to have nonfatal events have an elevated risk of a cardiovascular death. The application of the joint frailty model used a gamma distribution for the frailty term.
Statistical analyses using the full adjudicated endpoint events dataset without exclusions using this bundling approach were also determined.

[3] = key secondary composite endpoint, Andersen-Gill (I), full dataset
[4] = key secondary composite endpoint, Andersen-Gill (I), reduced dataset
[5] = key secondary composite endpoint, Andersen-Gill (II), full dataset
[6] = key secondary composite endpoint, Andersen-Gill (II), reduced dataset
[7] = key secondary composite endpoint, full dataset
[8] = key secondary composite endpoint, reduced dataset
[9] = key secondary composite endpoint, negative binomial, full dataset
[10] = key secondary composite endpoint, negative binomial, reduced dataset
[11] = key secondary endpoint, adjusted, reduced dataset
[12] = key secondary endpoint, unadjusted, reduced dataset
[13] = primary composite endpoint, Andersen-Gill (I), full dataset
[14] = primary composite endpoint, Andersen-Gill (I), reduced dataset
[15] = primary composite endpoint, Andersen-Gill (II), full dataset
[16] = primary composite endpoint, Andersen-Gill (II), reduced dataset
[17] = primary composite endpoint, full dataset
[18] = primary composite endpoint, reduced dataset
[19] = primary composite endpoint, negative binomial, full dataset
[20] = primary composite endpoint, negative binomial, reduced dataset
[21] = primary endpoint, adjusted, reduced dataset
[22] = primary endpoint, unadjusted, reduced dataset

`CC/C=C\C/C=C\C/C=C\C/C=C\C/C=C\CCCC(=O)OCC` [icosapent ethyl, eicosapentaenoic acid ethyl ester] was tested, and the “Total key secondary endpoint: HR vs placebo” value ([1]; primary prevention stratum) was 0.71, the “Total primary endpoint events: HR vs placebo” value ([1]; primary prevention stratum, adjusted stratification) was 0.79 and the “Total primary endpoint events: HR vs placebo” value ([1]; primary prevention stratum, without adjusting for stratification differences) was 0.86. For the same molecule, the “Total key secondary endpoint events: HR vs placebo” value ([1]; primary prevention) was 0.78, the “Total key secondary endpoint: HR vs placebo” value ([1]; secondary prevention stratum) was 0.70 and the “Total primary endpoint events: HR vs placebo” value ([1]; secondary prevention stratum, adjusted stratification) was 0.66. The “Total primary endpoint events: HR vs placebo” value ([1]; secondary prevention stratum, without adjusting for stratification differences) was 0.65, the “Total key secondary endpoint events: HR vs placebo” value ([1]; secondary prevention stratum) was 0.69 and the “Total (first and subsequent) ischemic events for the primary composite endpoint: relative risk reduction” value ([2]; in vivo) was 30%. The “Adjusted HR, total events” value [2, 3] was 0.71, the “Unadjusted HR, total events” value [2, 3] was 0.71 and the “Adjusted HR, total events” value [2, 4] was 0.72. For the same molecule, the “Unadjusted HR, total events” value [2, 4] was 0.72, the “Adjusted HR, total events” value [2, 5] was 0.71 and the “Unadjusted HR, total events” value [2, 5] was 0.71. For the same molecule, the “Adjusted HR, total events” value [2, 6] was 0.72, the “Unadjusted HR, total events” value [2, 6] was 0.72 and the “Adjusted HR, first event” value [2, 7] was 0.74. For the same molecule, the “Adjusted HR, second event” value [2, 7] was 0.75, the “Adjusted HR, third event” value [2, 7] was 0.79 and the “Unadjusted HR, first event” value [2, 7] was 0.74. The “Unadjusted HR, second event” value [2, 7] was 0.75, the “Unadjusted HR, third event” value [2, 7] was 0.79 and the “Adjusted HR, first event” value [2, 8] was 0.74. The “Adjusted HR, second event” value [2, 8] was 0.75, the “Adjusted HR, third event” value [2, 8] was 0.79 and the “Unadjusted HR, first event” value [2, 8] was 0.74. The “Unadjusted HR, second event” value [2, 8] was 0.75, the “Unadjusted HR, third event” value [2, 8] was 0.79 and the “Adjusted RR, total events” value [2, 9] was 0.71. For the same molecule, the “Unadjusted RR, total events” value [2, 9] was 0.71, the “Adjusted RR, total events” value [2, 10] was 0.72 and the “Unadjusted RR, total events” value [2, 10] was 0.71. The “HR, Cardiovascular Death” value [2, 11] was 0.79, the “HR, Non-fatal Cardiovascular Event” value [2, 11] was 0.68 and the “Fatal events, %” value ([2]; key secondary endpoint) was 45.0%. For the same molecule, the “Total events before reduction, %” value ([2]; key secondary endpoint, share of overall events) was 42.0%, the “HR, Cardiovascular Death” value [2, 12] was 0.79 and the “HR, Non-fatal Cardiovascular Event” value [2, 12] was 0.68. For the same molecule, the “Total key secondary endpoint events: RR vs placebo” value ([2]; negative binomial) was 0.72, the “Adjusted HR, total events” value [2, 13] was 0.68 and the “Unadjusted HR, total events” value [2, 13] was 0.68. For the same molecule, the “Adjusted HR, total events” value [2, 14] was 0.69, the “Unadjusted HR, total events” value [2, 14] was 0.69 and the “Adjusted HR, total events” value [2, 15] was 0.68. The “Unadjusted HR, total events” value [2, 15] was 0.68, the “Adjusted HR, total events” value [2, 16] was 0.69 and the “Unadjusted HR, total events” value [2, 16] was 0.69. The “Adjusted HR, first event” value [2, 17] was 0.75, the “Adjusted HR, second event” value [2, 17] was 0.68 and the “Adjusted HR, third event” value [2, 17] was 0.70. The “Unadjusted HR, first event” value [2, 17] was 0.76, the “Unadjusted HR, second event” value [2, 17] was 0.69 and the “Unadjusted HR, third event” value [2, 17] was 0.70. For the same molecule, the “Adjusted HR, first event” value [2, 18] was 0.75, the “Adjusted HR, second event” value [2, 18] was 0.68 and the “Adjusted HR, third event” value [2, 18] was 0.69. The “Unadjusted HR, first event” value [2, 18] was 0.76, the “Unadjusted HR, second event” value [2, 18] was 0.69 and the “Unadjusted HR, third event” value [2, 18] was 0.69. The “Adjusted RR, total events” value [2, 19] was 0.69, the “Unadjusted RR, total events” value [2, 19] was 0.67 and the “Adjusted RR, total events” value [2, 20] was 0.70. The “Unadjusted RR, total events” value [2, 20] was 0.68, the “HR, Cardiovascular Death” value [2, 21] was 0.80 and the “HR, Non-fatal Cardiovascular Event” value [2, 21] was 0.67. The “Fatal events, %” value ([2]; primary endpoint) was 45.0%, the “Total events after reduction, %” value ([2]; primary endpoint, multiple endpoints in a single calendar day handled as a single event) was 41.0% and the “HR, Cardiovascular Death” value [2, 22] was 0.80. For the same molecule, the “HR, Non-fatal Cardiovascular Event” value [2, 22] was 0.66.
